The source of these data is US20020002171A1, “Materials and methods for killing nematodes and nematode eggs” (priority 2000, published 2002).

For the test, the system named is Caenorhabditis elegans. Description: C. elegans L1 nematicidal dose response in 96-well plates, 5 day visual score (Example 2; same procedure for Example 7, Table 3). The format is in vivo. Also noted: key to 5 Day Visual Score V1 / 5 Day Visual Score V2 / 5 Day Visual Score V3 / 5 Day Visual Score V4 / 5 Day Visual Score V6 / 5 Day Visual Score V5 / Initial HTS Run Visual Score / Follow-up HTS Run Visual Score: Dead: only stiff L1s (no movement); Dead (L4): worms are dead, but at a later larval stage; majority of worms are L1 (based on size) worms move when plate is tapped; majority of worms are L2 (based on size); majority of worms are L3 (based on size); majority of worms are L4 (based on size); AD: majority of worms are adult; #AD: 5 adult worms or less; B!: sterile (0-25 progeny); B: low broodsize (25-100 progeny); ˜B: moderate broodsize (100-250 progeny); <: reduced broodsize (250-500 progeny); OK: no effect (˜1000+ progeny). The method, then: Caenorhabditis elegans adults were grown on Nematode Growth Medium (NGM) until they produced eggs, then the adults were removed.
The eggs were allowed to hatch, and the L1 larvae collected. See The Nematode Caenorhabditis elegans (1988) Cold Spring Harbor Laboratory Press. Using a Matrix Programmable Pipette, the L1s were distributed into 96-well tissue culture plates, 20 L1 in 50 μl NGM per well. Antibiotic/Antimyoticwas added to each well, and 1% by weight E. coli strain HB101. The subject anthelmintic compounds were stored at 5 mM in 100% DMSO. 0.7 μl of compounds 1-31 were added to the left-most column of wells to yield a final concentration of 70 μM in 1.4% DMSO, with 1.4% DMSO only as the control. The compounds were then subjected to 5 more 3-fold dilutions from left to right to yield 6 column concentrations of 70 μM, 23.3 μM, 7.8 μM, 2.6 μM, 0.9 μM, and 0.3 μM. Plates were stored in air-tight Rubbermaid plastic boxes at 20° C. The nematodes had cleared all control wells by day 4, and nematode viability was scored by visual examination under a 100× dissecting microsope on day 5. A visual viability scoring system was used as follows:
Column V1 has a compound concentration of 70 μM with sequential 3-fold dilutions reported in columns V2, V3, V4, V5, and V6, respectively, such that the V6 concentration was 0.3 μM.
The nematicidal activity of anthelmintic Compositions 48-168 were determined in accordance with the procedure outlined in Example 2.

The mark [1] stands for this setting: dose response, dilution V1, 5 day.
Setting [2] is: dose response, dilution V3, 5 day.
The mark [3] stands for this setting: dose response, dilution V4, 5 day.
The mark [4] stands for this setting: dose response, dilution V5, 5 day.
[5] abbreviates: dose response, dilution V6, 5 day.
Setting [6] is: dose response, dilution V1, day 5.
Where [7] appears, read: dose response, dilution V3, day 5.
[8] abbreviates: dose response, dilution V4, day 5.
The mark [9] stands for this setting: dose response, dilution V5, day 5.
[10] abbreviates: dose response, dilution V6, day 5.
The mark [11] stands for this setting: 23.3 μM, C. elegans L1, scored day 5.
[12] abbreviates: 70 μM, C. elegans L1, scored day 5.
Where [13] appears, read: dose response, dilution V2, day 5.

Regarding `FC(F)(F)c1cccc(N2CCN(c3nc(Cl)ns3)CC2)c1` [compound 338], the “Follow-up HTS Run % Run” value was found to be 116%, the “Follow-up HTS Run Visual Score” value is on record as “B (low broodsize (25-100 progeny))”, the “Follow-up HTS Run mOD” value is recorded as 186 mOD and the “Initial HTS Run % Run” value is 94%. The “Initial HTS Run Visual Score” value came to 3AD/B and the “Initial HTS Run mOD” value is listed as 103 mOD. For the same compound, the “5 Day Visual Score V1” value under setting [1] is on record as “Dead”. Besides, the “5 Day Visual Score V3” value under setting [2] is listed as “< (reduced broodsize (250-500 progeny))”. Further, the “5 Day Visual Score V4” value under setting [3] was “OK (no effect (˜1000+ progeny))”. Further, under setting [4], the “5 Day Visual Score V5” value is “OK (no effect (˜1000+ progeny))”. Further, the “5 Day Visual Score V6” value under setting [5] is recorded as “< (reduced broodsize (250-500 progeny))”.

Regarding `C=CCN(CC=C)c1nc(NCc2c(F)cccc2F)ns1` [compound 300], the “Follow-up HTS Run % Run” value was found to be 108%, the “Follow-up HTS Run Visual Score” value was “L4/AD/B!”, the “Follow-up HTS Run mOD” value stood at 174 mOD and the “Initial HTS Run % Run” value is given as 108%. In addition, the “Initial HTS Run mOD” value stood at 119 mOD. Also, the “5 Day Visual Score V1” value under setting [6] is given as “Dead(L2/L3)”. Moreover, the “5 Day Visual Score V3” value under setting [7] is recorded as “< (reduced broodsize (250-500 progeny))”. Also, under setting [8], the “5 Day Visual Score V4” value is reported as “OK (no effect (˜1000+ progeny))”. Further, the “5 Day Visual Score V5” value under setting [9] is reported as “OK (no effect (˜1000+ progeny))”. Under setting [10], the “5 Day Visual Score V6” value is on record as “OK (no effect (˜1000+ progeny))”.

With `Cc1ccc(C(CC(=O)c2ccccc2)Nc2ccc(I)cc2)o1` (centres unmarked) [AKC 128], the “5 Day Visual Score V6” value (0.3 μM, C. elegans L1, scored day 5) is “OK (no effect (˜1000+ progeny))”. Besides, the “5 Day Visual Score V5” value (0.9 μM, C. elegans L1, scored day 5) is reported as “#AD/˜B”. Besides, the “5 Day Visual Score V4” value (2.6 μM, C. elegans L1, scored day 5) is “L1”. Besides, the “5 Day Visual Score V3” value (7.8 μM, C. elegans L1, scored day 5) is on record as “Dead”. Further, the “5 Day Visual Score V2” value under setting [11] is “Dead”. The “5 Day Visual Score V1” value under setting [12] is “Dead”.

On to `CCCCN(Cc1ccccc1)c1nc(NCc2ccc(C(F)(F)F)cc2)ns1` [compound 309], for which the “Follow-up HTS Run % Run” value is 119%, the “Follow-up HTS Run mOD” value was determined as 191 mOD, the “Initial HTS Run % Run” value is recorded as 106% and the “Initial HTS Run Visual Score” value is recorded as “L4/AD/B!”. Besides, the “Initial HTS Run mOD” value came out at 117 mOD. Further, the “5 Day Visual Score V1” value under setting [6] is “L1”. For the same compound, the “5 Day Visual Score V2” value under setting [13] is reported as “B (low broodsize (25-100 progeny))”. Moreover, under setting [7], the “5 Day Visual Score V3” value was “OK (no effect (˜1000+ progeny))”. For the same compound, the “5 Day Visual Score V4” value under setting [8] is given as “OK (no effect (˜1000+ progeny))”. Besides, the “5 Day Visual Score V5” value under setting [9] was “OK (no effect (˜1000+ progeny))”. In addition, the “5 Day Visual Score V6” value under setting [10] was “OK (no effect (˜1000+ progeny))”.

In the case of `CN(Cc1ccccc1)c1nc(NCc2ccc(F)cc2F)ns1` [compound 295], the “Follow-up HTS Run % Run” value turned out to be 128%, the “Follow-up HTS Run Visual Score” value is recorded as “B! (sterile (0-25 progeny))”, the “Follow-up HTS Run mOD” value turned out to be 206 mOD and the “Initial HTS Run % Run” value is recorded as 121%. The “Initial HTS Run Visual Score” value is on record as “L4/AD/B!-Few Eggs” and the “Initial HTS Run mOD” value was 133 mOD. Further, under setting [13], the “5 Day Visual Score V2” value is on record as “B (low broodsize (25-100 progeny))”. Besides, the “5 Day Visual Score V3” value under setting [7] is given as “B (low broodsize (25-100 progeny))”. In addition, under setting [8], the “5 Day Visual Score V4” value is reported as “OK (no effect (˜1000+ progeny))”. Moreover, the “5 Day Visual Score V5” value under setting [9] is “OK (no effect (˜1000+ progeny))”. The “5 Day Visual Score V6” value under setting [10] was “OK (no effect (˜1000+ progeny))”.

Consider `C=CCN(CC=C)c1nc(NCCCCCCCCCC)ns1` [compound 282], for which the “Follow-up HTS Run % Run” value stood at 122%, the “Follow-up HTS Run Visual Score” value was “Dead”, the “Follow-up HTS Run mOD” value was determined as 197 mOD and the “Initial HTS Run % Run” value was 135%. Also, the “Initial HTS Run Visual Score” value is “Dead” and the “Initial HTS Run mOD” value was 148 mOD. Further, under setting [6], the “5 Day Visual Score V1” value is “Dead”. Also, the “5 Day Visual Score V2” value under setting [13] is recorded as “Dead”. Moreover, the “5 Day Visual Score V4” value under setting [8] is given as “OK (no effect (˜1000+ progeny))”. Under setting [9], the “5 Day Visual Score V5” value is “OK (no effect (˜1000+ progeny))”. Further, under setting [10], the “5 Day Visual Score V6” value is given as “OK (no effect (˜1000+ progeny))”.

With `CCN(CC)C(=O)C1CCCN(c2nc(N3CCN(c4ccc(F)cc4)CC3)ns2)C1` (centres unmarked) [compound 223], the “Follow-up HTS Run % Run” value was 118%, the “Follow-up HTS Run Visual Score” value is given as “Dead”, the “Follow-up HTS Run mOD” value was determined as 190 mOD and the “Initial HTS Run % Run” value worked out at 107%. Further, the “Initial HTS Run mOD” value stood at 118 mOD. Further, under setting [6], the “5 Day Visual Score V1” value was “Dead”. The “5 Day Visual Score V2” value under setting [13] is “B (low broodsize (25-100 progeny))”. Further, the “5 Day Visual Score V3” value under setting [7] is “< (reduced broodsize (250-500 progeny))”. Further, the “5 Day Visual Score V4” value under setting [8] is reported as “OK (no effect (˜1000+ progeny))”. For the same compound, the “5 Day Visual Score V5” value under setting [9] was “OK (no effect (˜1000+ progeny))”. In addition, under setting [10], the “5 Day Visual Score V6” value is listed as “OK (no effect (˜1000+ progeny))”.

Take `CCN(Cc1ccccc1)c1nc(NCc2ccc(C(F)(F)F)cc2)ns1` [compound 310]: the “Follow-up HTS Run % Run” value worked out at 116%, the “Follow-up HTS Run mOD” value turned out to be 187 mOD, the “Initial HTS Run % Run” value was 102% and the “Initial HTS Run mOD” value was 112 mOD. Further, under setting [1], the “5 Day Visual Score V1” value is given as “Dead”. In addition, the “5 Day Visual Score V2” value (dose response, dilution V2, 5 day) was “B (low broodsize (25-100 progeny))”. Moreover, the “5 Day Visual Score V3” value under setting [2] was “˜B (moderate broodsize (100-250 progeny))”. Also, the “5 Day Visual Score V4” value under setting [3] is “#AD/˜B”. For the same compound, under setting [4], the “5 Day Visual Score V5” value is reported as “OK (no effect (˜1000+ progeny))”. Moreover, under setting [5], the “5 Day Visual Score V6” value was “OK (no effect (˜1000+ progeny))”.

Consider `CN(Cc1ccccc1)c1nc(NCc2ccc(C(F)(F)F)cc2)ns1` [compound 315], for which the “Follow-up HTS Run % Run” value is listed as 118%, the “Follow-up HTS Run mOD” value is 190 mOD, the “Initial HTS Run % Run” value worked out at 112% and the “Initial HTS Run mOD” value was determined as 123 mOD. Under setting [1], the “5 Day Visual Score V1” value is reported as “L1”. The “5 Day Visual Score V4” value under setting [3] is listed as “˜B (moderate broodsize (100-250 progeny))”. For the same compound, the “5 Day Visual Score V5” value under setting [4] is recorded as “OK (no effect (˜1000+ progeny))”. In addition, the “5 Day Visual Score V6” value under setting [5] is on record as “< (reduced broodsize (250-500 progeny))”.

For `O=C(NCCc1ccccc1F)C1C(c2ccc(F)cc2)=NOC1c1ccc(-c2ccccc2)cc1` (centres unmarked) [AKC 2153], the “5 Day Visual Score V2” value under setting [11] is “L1”. Moreover, the “5 Day Visual Score V1” value under setting [12] is reported as “L1”.

In the case of `CCN(Cc1ccccc1)c1nc(NCc2ccc(F)cc2F)ns1` [compound 292], the “Follow-up HTS Run % Run” value was found to be 116%, the “Follow-up HTS Run Visual Score” value was “L4/AD/B!”, the “Follow-up HTS Run mOD” value came to 187 mOD and the “Initial HTS Run % Run” value is listed as 110%. For the same compound, the “Initial HTS Run mOD” value amounted to 121 mOD. The “5 Day Visual Score V2” value under setting [13] is listed as “˜B (moderate broodsize (100-250 progeny))”. For the same compound, the “5 Day Visual Score V3” value under setting [7] is given as “OK (no effect (˜1000+ progeny))”. In addition, the “5 Day Visual Score V4” value under setting [8] was “OK (no effect (˜1000+ progeny))”. Moreover, under setting [9], the “5 Day Visual Score V5” value is given as “OK (no effect (˜1000+ progeny))”. For the same compound, the “5 Day Visual Score V6” value under setting [10] was “OK (no effect (˜1000+ progeny))”.
